From patent publication US20130324489A1, “NEW ANTIFUNGAL COMPOSITIONS” (DSM IP ASSETS B.V., priority 2011, published 2013)

Experiments:
Penicillium italicum = test: In vitro antifungal activity, 96-well microtiter plates; type: cell-based; details: 0.63 ppm natamycin, 25° C.
Method: Subsequently, 100 μl of a Botrytis cinerea suspension prepared in PCB medium was used to inoculated each well with 2.5×10^3 spores/ml.
After incubation of the microtiter plates at 25° C., the in vitro antifungal activity (%) of the individual active ingredients was assessed by calculating the reduction in mould growth observed in the presence of the active ingredient in comparison to the mould growth observed in the absence of the active ingredient. The expected antifungal activity (E in %) of the active ingredient combination was calculated according to the Colby equation (Colby, 1967): […]
wherein X and Y are the observed antifungal activities (in %) of the individual active ingredients X and Y, respectively. If the observed antifungal activity (O in %) of the combination exceeds the expected antifungal activity (E in %) of the combination and the resulting synergy factor O/E is thus >1.0, the combined application of the active ingredients leads to a synergistic antifungal effect.
The experiment was conducted as described in Example 10, except for the fact that the following compositions were tested:
Furthermore, Penicillium italicum was used for inoculation. The antifungal activity (in %) of the individual and combined active ingredients was determined according to the method described in Example 10.

Botrytis cinerea = test: as above; type: cell-based; details: 1.25 ppm natamycin, 25° C.
Method: The following compositions were tested: […] After incubation of the microtiter plates at 25° C., the in vitro antifungal activity (%) of the individual active ingredients was assessed by calculating the reduction in mould growth observed in the presence of the active ingredient in comparison to the mould growth observed in the absence of the active ingredient. The expected antifungal activity (E in %) of the active ingredient combination was calculated according to the Colby equation (Colby, 1967): […] wherein X and Y are the observed antifungal activities (in %) of the individual active ingredients X and Y, respectively.

[1] = 5.0 ppm vinclozolin, 10 ppm procymidone, alone or natamycin + one of them, day 3
[2] = 50 ppm procymidone or both, day 5
[3] = 1.5 ppm vinclozolin, 1.25 ppm procymidone, alone or natamycin + one of them, day 3
[4] = 1.5 ppm vinclozolin, 1.25 ppm procymidone, alone or natamycin + one of them, day 6

Row | Structure (SMILES) | Observed antifungal activity O (%) (Penicillium italicum; [1]) | Observed antifungal activity O (%) (Penicillium italicum; [2]) | Observed antifungal activity O (%) (Botrytis cinerea; [3]) | Observed antifungal activity O (%) (Botrytis cinerea; [4]) | Observed antifungal activity O (%) (Botrytis cinerea; 3.0 ppm iprodione or both, day 5) | Observed antifungal activity O (%) (Botrytis cinerea; 7.0 ppm vinclozolin, 2.0 ppm procymidone, alone or natamycin + one of them, day 10) | Observed antifungal activity O (%) (Botrytis cinerea; 8.0 ppm iprodione or both, day 12)
1 | C[C@@H]1C/C=C/C=C/C=C/C=C/[C@H](O[C@@H]2O[C@H](C)[C@@H](O)[C@H](N)[C@@H]2O)C[C@@H]2O[C@](O)(C[C@@H](O)C[C@H]3O[C@@H]3/C=C/C(=O)O1)C[C@H](O)[C@H]2C(=O)O [Natamycin, natamycin] | 0% | 0% | 0% | 0% | 50% | 0% | 0%
2 | CC12CC1(C)C(=O)N(c1cc(Cl)cc(Cl)c1)C2=O (centres unmarked) [Procymidone, procymidone] | 0% | 0% | 0% | 0% | – | – | –
